The results in this text go back to ChEMBL document CHEMBL1212824, “A type-II kinase inhibitor capable of inhibiting the T315I "gatekeeper" mutant of Bcr-Abl” (J Med Chem, 2010).

What is called IC50 is the midpoint of a concentration-inhibition curve. High values mean weaker potency, low ones greater potency. As a reminder, the inhibition is the relative decrease from the control value, in per cent. By Tmax is commonly meant the time from dosing to the highest level. By Cmax is commonly meant the highest concentration seen after dosing. As a reminder, the Vd is a proportionality between amount in the body and measured concentration, not a real space. High values mean wide distribution into tissue, low ones little distribution into tissue. One may read the half-life as how long it takes for the measured level to halve. Low values mean fast loss, high ones slow loss.

A short description of data set [1]: cells. To be noted: Mus musculus, BaF3.
Data set [2] can be described thus: cells. To be noted: Mus musculus, BaF3. This is another data set of the same source.
Data set [3] in a line: cells. To be noted: Mus musculus, BaF3. The source holds these as a separate data set.
The nature of data set [4]: cells. To be noted: Mus musculus, BaF3. The source holds these as a separate data set.
Data set [5] is described as follows: cells. To be noted: Mus musculus, BaF3. This is another data set of the same source.
A short description of data set [6]: cells. To be noted: Mus musculus, BaF3. This is another data set of the same source.
A short description of data set [7]: cells. To be noted: Mus musculus, BaF3. The source holds these as a separate data set.
The nature of data set [8]: cells. To be noted: Mus musculus, BaF3. The source holds these as a separate data set.
Data set [9] has as its target Aurora kinase A (Homo sapiens) (UniProt O14965). The experiment in a line: Inhibition of human Aurora A at 10 uM.
Data set [10] concerns the target Tyrosine-protein kinase receptor UFO (Homo sapiens) (UniProt P30530). The experiment in a line: Inhibition of human Axl at 10 uM.
The target in data set [11] is Cytoplasmic tyrosine-protein kinase BMX (Homo sapiens) (UniProt P51813). The experiment in a line: Inhibition of human Bmx at 10 uM.
The target of data set [12] is RAF proto-oncogene serine/threonine-protein kinase (Homo sapiens) (UniProt P04049). In words: Inhibition of human c-RAF at 10 uM.
Data set [13] has as its target Calcium/calmodulin-dependent protein kinase type IV (Homo sapiens) (UniProt Q16566). The experiment in a line: Inhibition of human CaMK4 at 10 uM.
Data set [14] has as its target Cyclin-dependent kinase 1/cyclin B1 (Homo sapiens) (UniProt P06493+P14635). The experiment in a line: Inhibition of human CDK1/cyclinB at 10 uM. The data set is classed as protein-complex assay.
Data set [15] concerns the target Serine/threonine-protein kinase Chk2 (Homo sapiens) (UniProt O96017). The experiment in a line: Inhibition of human CHK2 at 10 uM.
Data set [16] concerns the target Casein kinase II (Homo sapiens) (UniProt P67870+P68400+P19784). In words: Inhibition of human CK2 at 10 uM. The class given is protein-complex assay.
The target of data set [17] is Tyrosine-protein kinase CSK (Homo sapiens) (UniProt P41240). In words: Inhibition of human CSK at 10 uM.
In data set [18] the target is Tyrosine-protein kinase Fes/Fps (Homo sapiens) (UniProt P07332). The experiment in a line: Inhibition of human Fes at 10 uM.
Data set [19] deals with Fibroblast growth factor receptor 3 (Homo sapiens) (UniProt P22607). The experiment in a line: Inhibition of human FGFR3 at 10 uM.
The target in data set [20] is Receptor-type tyrosine-protein kinase FLT3 (Homo sapiens) (UniProt P36888). The experiment in a line: Inhibition of human Flt3 at 10 uM.
The target of data set [21] is Glycogen synthase kinase-3 (Homo sapiens) (UniProt P49840+P49841). In words: Inhibition of human GSK3ss at 10 uM. The class given is protein assay.
For data set [22], the target named is Inhibitor of nuclear factor kappa-B kinase subunit alpha (Homo sapiens) (UniProt O15111). The experiment in a line: Inhibition of human IKKalpha at 10 uM.
For data set [23], the target named is Insulin receptor (Homo sapiens) (UniProt P06213). In words: Inhibition of human IR at 10 uM.
Data set [24] concerns the target Mitogen-activated protein kinase 8 (Homo sapiens) (UniProt P45983). In words: Inhibition of human JNK1alpha1 at 10 uM.
Data set [25] addresses Mitogen-activated protein kinase 9 (Homo sapiens) (UniProt P45984). In words: Inhibition of human JNK2alpha2 at 10 uM.
The target of data set [26] is Tyrosine-protein kinase Lck (Homo sapiens) (UniProt P06239). The experiment in a line: Inhibition of human Lck at 10 uM.
Data set [27] concerns the target Mitogen-activated protein kinase 1 (Homo sapiens) (UniProt P28482). The experiment in a line: Inhibition of human MAPK1 at 10 uM.
Data set [28] concerns the target MAP kinase-activated protein kinase 2 (Homo sapiens) (UniProt P49137). The experiment in a line: Inhibition of human MAPKAP-K2 at 10 uM.
The target in data set [29] is Dual specificity mitogen-activated protein kinase kinase 1 (Homo sapiens) (UniProt Q02750). The experiment in a line: Inhibition of human MEK1 at 10 uM.
The target of data set [30] is Dual specificity mitogen-activated protein kinase kinase 6 (Homo sapiens) (UniProt P52564). The experiment in a line: Inhibition of human MKK6 at 10 uM.
Data set [31] has as its target Ribosomal protein S6 kinase beta-1 (Homo sapiens) (UniProt P23443). The experiment in a line: Inhibition of human p70S6K at 10 uM.
Data set [32] deals with Serine/threonine-protein kinase PAK 2 (Homo sapiens) (UniProt Q13177). In words: Inhibition of human PAK2 at 10 uM.
Data set [33] has as its target Platelet-derived growth factor receptor alpha (Homo sapiens) (UniProt P16234). In words: Inhibition of human PDGFRalpha at 10 uM.
Data set [34] concerns the target RAC-alpha serine/threonine-protein kinase (Homo sapiens) (UniProt P31749). The experiment in a line: Inhibition of human PKBalpha at 10 uM.
Data set [35] deals with Protein kinase C alpha type (Homo sapiens) (UniProt P17252). The experiment in a line: Inhibition of human PKCalpha at 10 uM.
The target in data set [36] is Protein kinase C theta type (Homo sapiens) (UniProt Q04759). In words: Inhibition of human PKCtheta at 10 uM.
Data set [37] addresses Serine/threonine-protein kinase D2 (Homo sapiens) (UniProt Q9BZL6). The experiment in a line: Inhibition of human PKD2 at 10 uM.
In data set [38] the target is Rho-associated protein kinase 2 (Homo sapiens) (UniProt O75116). In words: Inhibition of human ROCK-2 at 10 uM.
Data set [39] addresses Ribosomal protein S6 kinase alpha-1 (Homo sapiens) (UniProt Q15418). The experiment in a line: Inhibition of human Rsk1 at 10 uM.
Data set [40] addresses Mitogen-activated protein kinase 14 (Homo sapiens) (UniProt Q16539). In words: Inhibition of human SAPK2a at 10 uM.
The target in data set [41] is Mitogen-activated protein kinase 11 (Homo sapiens) (UniProt Q15759). In words: Inhibition of human SAPK2b at 10 uM.
The target in data set [42] is Mitogen-activated protein kinase 12 (Homo sapiens) (UniProt P53778). The experiment in a line: Inhibition of human SAPK3 at 10 uM.
Data set [43] deals with Serine/threonine-protein kinase Sgk1 (Homo sapiens) (UniProt O00141). The experiment in a line: Inhibition of human SGK at 10 uM.
Data set [44] has as its target Tyrosine-protein kinase SYK (Homo sapiens) (UniProt P43405). The experiment in a line: Inhibition of human Syk at 10 uM.
For data set [45], the target named is BDNF/NT-3 growth factors receptor (Homo sapiens) (UniProt Q16620). The experiment in a line: Inhibition of human TrkB at 10 uM.
Data set [46] deals with Tyrosine-protein kinase ZAP-70 (Homo sapiens) (UniProt P43403). In words: Inhibition of human ZAP-70 at 10 uM.
The nature of data set [47]: Tmax in BALB/c mouse at 5 mg/kg, iv. The class given is ADME, organism-based. To be noted: in vivo. Details: dose 5 mg/kg, route intravenous.
Data set [48] has as its system Mus musculus. The experiment in a line: Tlast in BALB/c mouse at 5 mg/kg, iv. To be noted: in vivo. Details: dose 5 mg/kg, route intravenous. The class given is ADME, organism-based.
Data set [49] concerns Mus musculus. The experiment in a line: Tlast in BALB/c mouse at 20 mg/kg, po. Further details: dose 20 mg/kg, route oral. The data set is classed as ADME, organism-based. To be noted: in vivo.
For a further data set, the species on record is Homo sapiens. To be noted: 10 uM.
For data set [50], the species on record is Mus musculus. To be noted: 10 uM.
The species entered for data set [51] is Mus musculus. To be noted: in vivo, po, 20 mg/kg.
The next data set concerns COLO 205. The experiment in a line: cells. To be noted: Homo sapiens.
Another data set has as its system SW-620. In words: cells. To be noted: Homo sapiens.
Data set [52] is described as follows: cells. To be noted: Homo sapiens, U-87 MG.
A short description of data set [53]: cells. To be noted: Homo sapiens, HEK-293T.
A short description of data set [54]: in vivo. To be noted: BALB/c, mouse, iv, 5 mg/kg.
A short description of data set [55]: in vivo. To be noted: BALB/c, mouse, iv, 5 mg/kg. This is another data set of the same source.
A short description of data set [56]: in vivo. To be noted: BALB/c, mouse, iv, 5 mg/kg. This is another data set of the same source.
The target in data set [57] is 3-phosphoinositide-dependent protein kinase 1 (Homo sapiens) (UniProt O15530). The experiment in a line: Inhibition of human PDK1 at 10 uM.

Mitogen-activated protein kinase 8 (Homo sapiens), sequence (P45983 whole entry): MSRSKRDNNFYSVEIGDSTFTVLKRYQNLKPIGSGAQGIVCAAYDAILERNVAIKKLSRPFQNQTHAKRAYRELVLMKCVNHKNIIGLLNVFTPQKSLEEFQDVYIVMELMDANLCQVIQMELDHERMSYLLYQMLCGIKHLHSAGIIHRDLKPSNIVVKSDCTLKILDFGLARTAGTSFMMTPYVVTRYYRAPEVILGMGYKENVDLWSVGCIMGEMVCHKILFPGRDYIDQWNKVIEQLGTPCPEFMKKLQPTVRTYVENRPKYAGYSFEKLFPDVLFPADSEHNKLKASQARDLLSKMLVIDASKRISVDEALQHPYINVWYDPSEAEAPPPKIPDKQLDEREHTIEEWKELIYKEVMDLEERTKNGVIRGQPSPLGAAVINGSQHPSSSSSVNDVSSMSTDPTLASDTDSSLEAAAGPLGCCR
Ribosomal protein S6 kinase beta-1 (Homo sapiens), sequence (P23443 whole entry, looked up): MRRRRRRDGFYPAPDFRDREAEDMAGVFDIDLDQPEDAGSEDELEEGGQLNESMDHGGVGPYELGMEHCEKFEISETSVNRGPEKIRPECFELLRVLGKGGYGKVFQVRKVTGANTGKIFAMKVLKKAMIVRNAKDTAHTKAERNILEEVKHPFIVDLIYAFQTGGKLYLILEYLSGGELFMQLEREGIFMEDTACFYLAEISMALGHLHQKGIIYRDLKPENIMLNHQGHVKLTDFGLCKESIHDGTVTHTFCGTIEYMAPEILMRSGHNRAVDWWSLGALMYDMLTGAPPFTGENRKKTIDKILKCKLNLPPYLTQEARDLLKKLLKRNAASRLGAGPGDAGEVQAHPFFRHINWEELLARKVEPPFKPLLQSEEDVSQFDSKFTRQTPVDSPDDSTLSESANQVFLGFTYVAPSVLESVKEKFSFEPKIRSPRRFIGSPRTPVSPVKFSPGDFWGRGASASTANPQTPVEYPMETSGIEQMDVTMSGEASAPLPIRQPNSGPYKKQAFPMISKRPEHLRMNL
Serine/threonine-protein kinase D2 (Homo sapiens), sequence (Q9BZL6 whole entry): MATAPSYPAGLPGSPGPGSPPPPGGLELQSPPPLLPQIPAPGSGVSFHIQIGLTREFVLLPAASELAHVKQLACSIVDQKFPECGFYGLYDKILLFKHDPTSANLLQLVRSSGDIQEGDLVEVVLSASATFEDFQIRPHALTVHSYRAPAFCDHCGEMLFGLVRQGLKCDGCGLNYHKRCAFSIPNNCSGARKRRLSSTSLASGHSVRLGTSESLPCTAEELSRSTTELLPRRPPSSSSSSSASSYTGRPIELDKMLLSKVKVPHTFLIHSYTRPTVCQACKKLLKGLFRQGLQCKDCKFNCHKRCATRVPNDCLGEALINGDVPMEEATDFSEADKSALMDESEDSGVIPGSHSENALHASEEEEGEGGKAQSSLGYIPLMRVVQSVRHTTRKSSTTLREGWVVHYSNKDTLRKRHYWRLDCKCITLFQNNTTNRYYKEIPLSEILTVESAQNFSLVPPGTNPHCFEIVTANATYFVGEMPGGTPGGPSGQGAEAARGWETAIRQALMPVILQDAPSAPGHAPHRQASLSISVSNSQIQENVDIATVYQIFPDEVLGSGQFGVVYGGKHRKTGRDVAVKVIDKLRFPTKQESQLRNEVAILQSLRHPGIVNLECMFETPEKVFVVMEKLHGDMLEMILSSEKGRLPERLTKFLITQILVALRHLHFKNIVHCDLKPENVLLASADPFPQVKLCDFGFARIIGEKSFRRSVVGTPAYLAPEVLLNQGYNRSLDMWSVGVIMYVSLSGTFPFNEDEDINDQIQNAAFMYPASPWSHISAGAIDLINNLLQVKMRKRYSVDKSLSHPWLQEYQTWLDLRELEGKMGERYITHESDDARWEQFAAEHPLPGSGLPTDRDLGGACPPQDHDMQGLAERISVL
Receptor-type tyrosine-protein kinase FLT3 (Homo sapiens), sequence (P36888 whole entry): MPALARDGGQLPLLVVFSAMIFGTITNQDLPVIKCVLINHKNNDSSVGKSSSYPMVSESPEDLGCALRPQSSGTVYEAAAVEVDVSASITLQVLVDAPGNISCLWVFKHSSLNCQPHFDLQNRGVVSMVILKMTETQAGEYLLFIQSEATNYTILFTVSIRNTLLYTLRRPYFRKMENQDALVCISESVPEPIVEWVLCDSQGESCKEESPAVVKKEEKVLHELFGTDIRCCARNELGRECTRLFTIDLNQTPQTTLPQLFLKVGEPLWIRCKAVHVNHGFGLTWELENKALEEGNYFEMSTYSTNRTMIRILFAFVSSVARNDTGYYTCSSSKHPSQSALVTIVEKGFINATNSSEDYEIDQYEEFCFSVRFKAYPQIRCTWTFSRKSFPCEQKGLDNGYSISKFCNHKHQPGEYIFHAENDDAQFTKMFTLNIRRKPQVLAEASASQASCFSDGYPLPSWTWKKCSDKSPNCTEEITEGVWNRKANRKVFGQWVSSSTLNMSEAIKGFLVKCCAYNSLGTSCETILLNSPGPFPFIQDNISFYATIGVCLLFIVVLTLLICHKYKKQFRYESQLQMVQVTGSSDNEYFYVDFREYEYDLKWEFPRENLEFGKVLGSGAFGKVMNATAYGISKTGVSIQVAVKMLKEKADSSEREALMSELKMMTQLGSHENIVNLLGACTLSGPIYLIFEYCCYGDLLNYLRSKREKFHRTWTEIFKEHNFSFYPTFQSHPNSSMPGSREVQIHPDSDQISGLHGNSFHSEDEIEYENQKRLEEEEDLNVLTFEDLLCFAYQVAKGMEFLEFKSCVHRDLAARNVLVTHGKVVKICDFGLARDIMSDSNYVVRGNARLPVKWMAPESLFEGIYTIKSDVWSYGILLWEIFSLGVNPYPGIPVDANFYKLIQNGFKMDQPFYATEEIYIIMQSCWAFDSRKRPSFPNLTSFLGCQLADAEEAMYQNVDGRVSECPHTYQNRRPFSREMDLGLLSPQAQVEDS
Fibroblast growth factor receptor 3 (Homo sapiens), sequence (P22607 23-806 limits assumed): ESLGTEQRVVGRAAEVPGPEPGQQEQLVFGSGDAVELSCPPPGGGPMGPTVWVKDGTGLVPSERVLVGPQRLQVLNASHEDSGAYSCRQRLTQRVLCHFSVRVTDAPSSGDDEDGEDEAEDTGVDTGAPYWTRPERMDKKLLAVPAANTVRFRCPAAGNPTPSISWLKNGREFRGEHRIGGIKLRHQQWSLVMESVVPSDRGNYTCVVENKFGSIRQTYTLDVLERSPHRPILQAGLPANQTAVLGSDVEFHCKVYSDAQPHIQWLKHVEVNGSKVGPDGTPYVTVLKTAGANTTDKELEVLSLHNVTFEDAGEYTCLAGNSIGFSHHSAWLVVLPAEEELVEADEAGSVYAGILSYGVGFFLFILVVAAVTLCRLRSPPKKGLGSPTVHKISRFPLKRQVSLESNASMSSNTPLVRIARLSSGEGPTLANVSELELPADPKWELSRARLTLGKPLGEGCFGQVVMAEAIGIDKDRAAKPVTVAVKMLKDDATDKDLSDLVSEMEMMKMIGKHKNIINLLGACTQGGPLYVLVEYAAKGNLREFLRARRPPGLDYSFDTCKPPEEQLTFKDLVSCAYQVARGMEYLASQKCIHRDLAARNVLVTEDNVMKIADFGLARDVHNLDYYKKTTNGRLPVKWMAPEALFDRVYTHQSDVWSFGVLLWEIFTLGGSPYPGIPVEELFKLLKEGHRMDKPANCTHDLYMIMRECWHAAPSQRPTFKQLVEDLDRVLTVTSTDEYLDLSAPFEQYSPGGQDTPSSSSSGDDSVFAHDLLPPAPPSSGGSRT
Tyrosine-protein kinase Fes/Fps (Homo sapiens), sequence (P07332 whole entry): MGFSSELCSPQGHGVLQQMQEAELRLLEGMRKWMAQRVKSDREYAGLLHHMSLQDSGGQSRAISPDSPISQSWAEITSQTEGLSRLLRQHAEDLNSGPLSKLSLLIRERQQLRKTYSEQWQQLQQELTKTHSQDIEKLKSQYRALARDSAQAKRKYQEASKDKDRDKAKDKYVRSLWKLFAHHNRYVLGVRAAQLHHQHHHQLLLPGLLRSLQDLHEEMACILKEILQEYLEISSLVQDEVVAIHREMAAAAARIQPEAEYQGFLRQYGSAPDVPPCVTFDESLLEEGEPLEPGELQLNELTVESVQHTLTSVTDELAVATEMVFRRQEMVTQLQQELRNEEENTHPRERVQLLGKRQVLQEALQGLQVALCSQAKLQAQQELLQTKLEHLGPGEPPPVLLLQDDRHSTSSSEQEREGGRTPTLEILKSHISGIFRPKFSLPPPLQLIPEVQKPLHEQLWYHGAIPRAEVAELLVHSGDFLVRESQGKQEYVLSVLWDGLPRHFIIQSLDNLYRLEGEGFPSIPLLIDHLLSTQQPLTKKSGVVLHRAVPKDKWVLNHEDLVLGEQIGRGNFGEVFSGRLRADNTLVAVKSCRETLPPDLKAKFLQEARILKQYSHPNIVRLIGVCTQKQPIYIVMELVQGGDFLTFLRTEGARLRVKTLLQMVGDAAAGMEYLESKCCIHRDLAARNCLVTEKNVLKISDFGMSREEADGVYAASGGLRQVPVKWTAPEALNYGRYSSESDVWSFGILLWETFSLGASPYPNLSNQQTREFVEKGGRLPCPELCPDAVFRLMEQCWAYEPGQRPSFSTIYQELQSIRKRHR
Serine/threonine-protein kinase PAK 2 (Homo sapiens), sequence (Q13177 whole entry): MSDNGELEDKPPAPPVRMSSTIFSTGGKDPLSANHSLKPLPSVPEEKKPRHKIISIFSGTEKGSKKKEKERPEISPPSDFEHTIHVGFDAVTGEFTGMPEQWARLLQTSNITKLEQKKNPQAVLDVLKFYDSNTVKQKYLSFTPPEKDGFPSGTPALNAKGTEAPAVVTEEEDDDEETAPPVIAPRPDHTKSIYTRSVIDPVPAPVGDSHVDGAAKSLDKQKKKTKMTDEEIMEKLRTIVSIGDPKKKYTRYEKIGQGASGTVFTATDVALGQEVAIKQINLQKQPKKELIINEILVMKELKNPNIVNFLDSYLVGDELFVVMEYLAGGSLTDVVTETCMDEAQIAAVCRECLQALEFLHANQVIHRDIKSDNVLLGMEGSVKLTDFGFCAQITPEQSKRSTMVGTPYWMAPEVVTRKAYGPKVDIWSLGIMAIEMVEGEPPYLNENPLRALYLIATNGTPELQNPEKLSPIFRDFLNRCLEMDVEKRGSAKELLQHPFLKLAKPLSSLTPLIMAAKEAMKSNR

`Cc1ccc(NC(=O)c2cccc(C(F)(F)F)c2)cc1N1Cc2cnc(Nc3ccccc3)nc2N(C)C1=O`: the IC50 in the data set “cells [1]” was below 5 nM; in “cells [2]”, 19 nM; in the data set “cells [3]”, below 5 nM; in “cells [4]” it was below 5 nM.
Regarding `CNc1ncc2c(n1)N(C)C(=O)N(c1cc(NC(=O)c3cc(-n4cnc(C)c4)cc(C(F)(F)F)c3)ccc1C)C2`, the IC50 is below 5 nM in the data set “cells [1]”; below 5 nM in “cells [5]”; 16 nM in “cells [2]”; 15 nM in “cells [3]”; 13 nM in the data set “cells [6]”; below 5 nM in the data set “cells [7]”. In the data set “cells [4]”, this compound registered an IC50 below 5 nM.
On to `Cc1ccc(NC(=O)c2cccc(C(F)(F)F)c2)cc1N1Cc2cnc(N)nc2N(C)C1=O`, for which the IC50 in “cells [1]”, in the data set “cells [2]”, in “cells [3]”, in the data set “cells [6]”, in the data set “cells [8]” and in the data set “cells [7]” was below 5 nM each time. This compound displayed an IC50 in the data set “cells [4]” below 5 nM.
For the compound `Cc1ccc(Nc2ncc3c(n2)N(C)C(=O)N(c2cc(NC(=O)c4cccc(C(F)(F)F)c4)ccc2C)C3)cn1`, the inhibition in data set [9] was determined as 31%; in [10], 69%; in data set [11] it was 98%; in data set [12], 100%; in data set [13], 0%; in data set [14], 3%. Moreover, the inhibition in [15] came out at 12%; in data set [16], 6%; in data set [17], 100%; in data set [18], 98%; in [19], 100%; in data set [20] it was 69%. Besides, the inhibition is 59% in data set [21]; 69% in [22]; 89% in data set [23]; 97% in [24]; 99% in data set [25]; 99% in [26]. Besides, the inhibition in [27] was found to be 68%; in data set [28] it was 0%; in [29] it was 58%; in data set [30], 100%; in [31], 92%; in data set [32], 45%. The inhibition is 62% in data set [33]; 7% in [34]; 51% in data set [35]; 22% in data set [36]; 77% in data set [37]; 2% in data set [38]. The inhibition was determined as 95% in data set [39]; 95% in data set [40]; 98% in data set [41]; 35% in data set [42]; 0% in [43]; 98% in [44]. Also, the inhibition in [45] was found to be 100%; in [46] it was 6%; in the data set filed under Homo sapiens it was 49%; in the data set listed under Mus musculus [50], 98%; in data set [57], 0%. For the same compound, in [47], the Tmax was 1.8 min. Moreover, the Tlast with Mus musculus [48] and in the data set with Mus musculus [49] was 24 h each time. Also, the Cmax in the data set filed under Mus musculus [51] worked out at 3.62 µM; in the data set “in vivo [55]”, 11.7 µM. Further, the IC50 in the data set with COLO 205 was 5 nM; in the data set with SW-620 it was 1 nM; in the data set “cells [52]”, 5960 nM; in the data set “cells [53]” it was above 10000 nM. Also, the Vd in the data set “in vivo [54]” was 1.12 L/kg. Moreover, in “in vivo [56]”, the half-life is 3.8 h.
